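Five compound concentrations were applied to cells in 96-well plates for 48 hours; endpoints were derived by simple linear interpolation of the resulting dose-response curve. GI50: concentration for 50% inhibition of growth.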 Active and inactive are the calls of the source. Rule as the data show it: active = GI50 up to about 1.1 µM and inactive = higher.
Tests used:
Test in all cases: DTP human tumour cell line panel, 48 h
[1] = system: CCRF-CEM
[2] = system: DLD-1
[3] = system: DMS-273
[4] = system: HCT-116
[5] = system: HOP-18
[6] = system: IGROV-1
[7] = system: LOX IMVI
[8] = system: M14
[9] = system: NCI-H23
[10] = system: NCI-H460
[11] = system: OVCAR-5
[12] = system: RPMI-8226
[13] = system: SF-268
[14] = system: SK-OV-3
[15] = system: SNB-75
[16] = system: SNB-78
[17] = system: KM12
[18] = system: M19-MEL
[19] = system: NCI/ADR-RES

Measured: GI50

CCOC(=O)C1CCn2c(nc3c2c(=O)n(C)c(=O)n3C)S1 (configuration not stated)
inactive: [1] > 100 µM | [2] > 100 µM | [3] > 100 µM | [4] > 100 µM | [5] > 100 µM | [6] > 100 µM | [7] > 100 µM | [8] > 100 µM | [9] > 100 µM | [10] > 100 µM | [11] > 100 µM | [12] > 100 µM | [13] > 100 µM | [14] > 100 µM | [15] > 100 µM | [16] > 100 µM

OC1CCOc2ccccc21 (configuration not stated)
inactive: [1] > 100 µM | [2] > 100 µM | [3] > 100 µM | [4] > 100 µM | [5] 56.2 µM | [6] > 100 µM | [17] > 100 µM | [7] > 100 µM | [8] > 100 µM | [18] > 100 µM | [9] > 100 µM | [10] > 100 µM | [11] > 100 µM | [12] > 100 µM | [13] > 100 µM | [14] > 100 µM

O=C1CCC(NC(=O)Cc2ccc(O)cc2)C(=O)N1 (configuration not stated)
inactive: [3] > 2500 µM | [4] > 2500 µM | [5] > 2500 µM | [6] > 2500 µM | [17] > 2500 µM | [7] > 2500 µM | [8] > 2500 µM | [18] > 2500 µM | [9] > 2500 µM | [10] > 2500 µM | [11] > 2500 µM | [13] > 2500 µM | [14] 1020 µM | [15] 589 µM | [16] > 2500 µM

Cc1ccc(C2CC(c3cccc([N+](=O)[O-])c3)=Nc3ccccc3S2)cc1 (configuration not stated)
inactive: [1] 23.2 µM | [2] 20 µM | [3] 33.7 µM | [4] 13.3 µM | [5] 15.4 µM | [6] 63.8 µM | [17] 18 µM | [7] 21.6 µM | [8] 31.8 µM | [18] 40.4 µM | [9] 22.9 µM | [10] 68.5 µM | [11] > 100 µM | [12] 7.83 µM | [13] 34.9 µM | [14] > 100 µM | [15] 21 µM | [16] 23.2 µM

CC1CC(C[N+](=O)[O-])CC2(C1)OCCO2 (configuration not stated)
inactive: [1] > 100 µM | [2] > 100 µM | [3] > 100 µM | [4] > 100 µM | [5] > 100 µM | [6] > 100 µM | [17] > 100 µM | [8] > 100 µM | [18] > 100 µM | [10] > 100 µM | [12] > 100 µM | [13] > 100 µM | [14] > 100 µM | [15] > 100 µM | [16] > 100 µM

O=C(OCCOC(=O)c1ccc2c(c1)C1(SCCS1)c1ccccc1-2)c1ccc2c(c1)C1(SCCS1)c1ccccc1-2
inactive: [1] > 100 µM | [2] > 100 µM | [4] > 100 µM | [5] 27.5 µM | [6] > 100 µM | [17] > 100 µM | [7] > 100 µM | [8] > 100 µM | [18] > 100 µM | [9] > 100 µM | [10] > 100 µM | [11] > 100 µM | [12] > 100 µM | [13] > 100 µM | [14] > 100 µM | [15] > 100 µM | [16] > 100 µM

O=C1NC(O)CCN1C1OC(CO)C(O)C1O (configuration not stated)
inactive: [1] > 250 µM | [2] > 250 µM | [3] > 250 µM | [4] > 141 µM | [5] > 250 µM | [6] > 250 µM | [17] > 250 µM | [7] > 136 µM | [18] > 213 µM | [9] > 250 µM | [10] > 250 µM | [19] > 250 µM | [11] > 92 µM | [12] > 250 µM | [13] > 250 µM | [14] > 250 µM | [15] > 250 µM | [16] > 250 µM

CC/C=C\C/C=C\C/C=C\CCCCCCCC(=O)OC [METHYL LINOLENATE]
inactive: [1] 45.8 µM | [2] > 100 µM | [3] > 100 µM | [4] 91.6 µM | [5] > 100 µM | [6] > 100 µM | [17] > 100 µM | [7] 18.9 µM | [18] > 100 µM | [9] > 100 µM | [10] > 100 µM | [19] > 100 µM | [11] > 100 µM | [12] 99.3 µM | [13] > 100 µM | [14] > 100 µM | [15] 67.6 µM
